Measured values from publication PMC9607599, “Dual Targeting Ligands—Histamine H3 Receptor Ligands with Monoamine Oxidase B Inhibitory Activity—In Vitro and In Vivo Evaluation” (Pharmaceutics, 2022).
“And” between values parts separate entries of the source, which are not always exact repeats. Identical values can stand only once.

Tests used:
hH3R = settings: cited from earlier work
hMAO B = settings: cited from earlier work
[1] = target: T1, human histamine H3 receptor (hH3R) (Homo sapiens, UniProt Q9Y5N1); assay: [3H]Nα-methylhistamine radioligand binding assay in CHO-K1 cells stably expressing hH3R; set-up: expressed in transfected cells; host or cells: CHO-K1; settings: for hH3R activity in words / inhibition at 1 µM: CHO K1 cells; for inhibition at 1 µM: two independent experiments, read-out: hH3R % Inh. (radioligand inhibition); for Ki: CHO-K1 cells, [3H]Nα-methylhistamine, mean ± SEM of three independent experiments
Procedure: (§1) Affinity to hH3R stably expressed in CHO-K1 [6] or HEK293 [11] cells was evaluated in a radioligand binding assay as described previously. Briefly, 10 mM stock solutions of the test compounds in DMSO were prepared. Each compound was tested at eight concentrations ranging from 10^−5 to 10^−12 M (final concentration). All assays were carried out in duplicate. […] The radioactivity was counted in MicroBeta 2 [6] or MicroBeta Trilux counter (PerkinElmer). Data were fitted to a one-site curve-fitting equation with Prism 6 (GraphPad Software, San Diego, CA, USA) and Ki values were calculated from IC50 values (from at least three experiments performed in duplicates) according to the Cheng−Prusoff equation [12].
(§2) Affinity for hH3R was evaluated in a radioligand binding assay using [^3H]N^α-methylhistamine as radioligand in CHO K1 or HEK293 cells stably expressing hH3R as described previously. […] Then, those with at least 50% inhibition for hH3R were selected for further testing (Ki evaluation). […] Compounds were tested in the binding assay in HEK293 cells.

human MAO B (hMAO B) [2] = target: T2, human MAO B (hMAO B) (Homo sapiens, UniProt P27338); assay: fluorometric MAO assay (p-tyramine substrate); assay type: biochemical; settings: for IC50: fluorometric MAO assay, mean ± SEM of 2–4 independent experiments; for inhibition at 1 µM: mean of two independent experiments, read-out: hMAO B % of Inh.
T2 sequence (P27338 1-520): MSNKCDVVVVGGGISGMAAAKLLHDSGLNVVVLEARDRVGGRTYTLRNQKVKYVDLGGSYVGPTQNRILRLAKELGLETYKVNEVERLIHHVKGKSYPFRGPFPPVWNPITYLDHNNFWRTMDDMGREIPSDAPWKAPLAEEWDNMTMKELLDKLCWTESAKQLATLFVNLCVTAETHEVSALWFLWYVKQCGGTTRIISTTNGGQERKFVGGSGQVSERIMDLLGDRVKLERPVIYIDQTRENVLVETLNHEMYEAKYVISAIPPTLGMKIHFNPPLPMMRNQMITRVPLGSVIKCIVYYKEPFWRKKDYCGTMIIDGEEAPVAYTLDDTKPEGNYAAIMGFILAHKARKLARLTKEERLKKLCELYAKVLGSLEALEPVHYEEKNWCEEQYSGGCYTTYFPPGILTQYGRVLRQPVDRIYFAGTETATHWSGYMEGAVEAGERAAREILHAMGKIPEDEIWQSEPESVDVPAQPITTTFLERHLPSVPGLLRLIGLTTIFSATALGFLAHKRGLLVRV
Procedure: The precise method was described in [6]. First, compounds 4–32 were screened for hMAO B inhibitory activity at 1 μM concentration by the fluorometric method. Para-tyramine (200 μM) was used as a substrate for the enzyme and safinamide (1 μM) was used as a reference compound. […] Each experiment was performed in duplicate.
All compounds were first screened for hMAO B inhibitory activity at the concentration of 1 μM. […] Based on the results, we selected compounds 9 and 13 for further analysis.

[3] = target: T1, human histamine H3 receptor (hH3R); assay: [3H]Nα-methylhistamine radioligand binding assay in HEK293 cells stably expressing hH3R; set-up: expressed in transfected cells; settings: mean within 95% CI of three independent experiments
Procedure: as §1, §2

human MAO B (hMAO B) [4] = target: T2, human MAO B (hMAO B); assay: modality of hMAO B inhibition (Michaelis-Menten / Lineweaver-Burk); assay type: biochemical
Procedure: Modality of hMAO B inhibition was evaluated for compounds 9 and 13 and the reference safinamide according to the method described previously. Three concentrations of inhibitors, corresponding to their IC20, IC50 and IC80 values, were used. Each experiment was performed in triplicate. KM and Vmax values were calculated from Michaelis–Menten curves by nonlinear regression from the substrate. Lineweaver–Burk plots were calculated using linear regression in GraphPad Prism 6.07 (GraphPad Software, San Diego, CA, USA).
For testing modality of enzyme inhibition, we used three concentrations of inhibitors that corresponded to their IC20, IC50 and IC80 values. Substrate (p-tyramine) was used at concentrations: 0.05, 0.1, 0.5, 1.0, 1.5 and 2.0 mM.

MAO B = target: T3, MAO B (Homo sapiens, UniProt P27338); assay: reversibility of MAO B inhibition (reactivation by excess p-tyramine, with/without preincubation); assay type: biochemical; settings: inhibitor at IC80; for reversibility of MAO B inhibition: excess p-tyramine 200 µM
T3 sequence (P27338 1-520): T2 sequence (P27338 1-520)
Procedure: The reversibility of the MAO inhibition was tested as described in [6, 7]. […] Two variants of experiment were performed. […] After 22 min, the concentration of the substrate was increased to 200 µM and the signal was measured for 5 h.

[5] = parallel artificial membrane permeability assay (PAMPA); assay type: in vitro ADME; settings: PAMPA; triplicate; breakpoint for permeable compounds Pe ≥ 1.5×10^−6 cm/s
[6] = inhibitor at IC20, IC50, IC80, p-tyramine 0.05–2.0 mM

T1 sequence (Q9Y5N1 whole entry): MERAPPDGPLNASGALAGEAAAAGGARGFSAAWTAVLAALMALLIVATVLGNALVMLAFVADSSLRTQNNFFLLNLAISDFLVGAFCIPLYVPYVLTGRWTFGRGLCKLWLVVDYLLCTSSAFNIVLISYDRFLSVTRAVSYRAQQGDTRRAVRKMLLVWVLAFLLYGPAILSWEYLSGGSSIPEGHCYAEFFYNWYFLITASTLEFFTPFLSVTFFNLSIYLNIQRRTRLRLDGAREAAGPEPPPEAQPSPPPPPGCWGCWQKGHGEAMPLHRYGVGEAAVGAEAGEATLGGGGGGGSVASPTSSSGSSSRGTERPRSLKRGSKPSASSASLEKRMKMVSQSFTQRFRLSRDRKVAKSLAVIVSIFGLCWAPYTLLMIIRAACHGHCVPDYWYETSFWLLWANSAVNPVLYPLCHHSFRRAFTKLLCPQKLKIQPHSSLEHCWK

## CC(C)(C)c1cccc(OCCCN2CCCCC2)c1.Cl (hydrate or solvate) [Compound 25, 1-(3-(3-(tert-Butyl)phenoxy)propyl)piperidine hydrogen chloride]
other
  melting point: 145 to 148 °C

## O=C1/C(=C/c2ccc(OCCCN3CCCCC3)cc2)Cc2cc(OCc3ccc(Br)cc3)ccc21 [Compound 1]
hH3R
  Ki: 6.5 nM

## CCC(C)(C)c1ccc(OCCCN2CCCC2)cc1 [Compound 3]
hMAO B
  IC50: 4.5 nM
hH3R
  Ki: 63 nM

## CC(C)(C)c1ccc(OCCCN2CCOCC2)cc1.O=C(O)C(=O)O [Compound 14, 4-(3-(4-(tert-Butyl)phenoxy)propyl)morpholine hydrogen oxalate]
[1]
  hH3R activity in words: weak potency
  inhibition at 1 µM: 11%
Human MAO B (hMAO B) [2]
  IC50: 192 ± 14 nM
other
  melting point: 188 to 192 °C

## CC(C)(C)c1ccc(OCCCN2CCN(c3ccccc3)CC2)cc1.O=C(O)C(=O)O [Compound 16, 1-(3-(4-(tert-Butyl)phenoxy)propyl)-4-phenylpiperazine hydrogen oxalate]
[1]
  hH3R activity in words: weak potency
[1]; hH3R Ki [nM] ± SEM
  Ki: 535 ± 41 nM
Human MAO B (hMAO B) [2]
  inhibition at 1 µM: 14%
other
  melting point: 164 to 166 °C

## CC(C)(C)c1ccc(OCCCN2CCN(C/C=C\c3ccccc3)CC2)cc1.O=C(O)C(=O)O [Compound 17, (Z)-1-(3-(4-(tert-Butyl)phenoxy)propyl)-4-(3-phenylallyl)piperazine hydrogen oxalate]
[1]
  hH3R activity in words: no activity at all
  inhibition at 1 µM: 0%
Human MAO B (hMAO B) [2]
  inhibition at 1 µM: 7%
other
  melting point: 217 to 219 °C

## CC(=O)c1ccc(OCCCN2CCCCC2)cc1.O=C(O)C(=O)O [Compound 18, 1-(4-(3-(Piperidin-1-yl)propoxy)phenyl)ethan-1-one hydrogen oxalate]
[3]
  Ki: 15 nM
Human MAO B (hMAO B) [2]
  inhibition at 1 µM: 19%
other
  melting point: 157 to 159 °C

## CC(C)c1ccc(OCCCN2CCCCC2)cc1.O=C(O)C(=O)O [Compound 19, 1-(3-(4-Isopropylphenoxy)propyl)piperidine hydrogen oxalate]
[3]
  Ki: 52 nM
Human MAO B (hMAO B) [2]
  IC50: 21 ± 3 nM
other
  melting point: 112 to 115 °C

## CCc1ccc(OCCCN2CCCCC2)cc1.O=C(O)C(=O)O [Compound 20, 1-(3-(4-Ethylphenoxy)propyl)piperidine hydrogen oxalate]
[3]
  Ki: 62 nM and 61 nM
Human MAO B (hMAO B) [2]
  IC50: 70 ± 2 nM
other
  melting point: 144 to 146 °C

## Cc1ccc(OCCCN2CCCCC2)cc1.O=C(O)C(=O)O [Compound 21, 1-(3-(p-Tolyloxy)propyl)piperidine hydrogen oxalate]
[3]
  Ki: 43 nM
Human MAO B (hMAO B) [2]
  IC50: 755 ± 106 nM
other
  melting point: 160 to 162 °C

## Fc1ccc(OCCCN2CCCCC2)cc1.O=C(O)C(=O)O [Compound 22, 1-(3-(4-Fluorophenoxy)propyl)piperidine hydrogen oxalate]
[3]
  Ki: > 80 nM and 93 nM
Human MAO B (hMAO B) [2]
  inhibition at 1 µM: 29%
other
  melting point: 132 to 136 °C

## Clc1ccc(OCCCN2CCCCC2)cc1.O=C(O)C(=O)O [Compound 23, 1-(3-(4-chlorophenoxy)propyl)piperidine hydrogen oxalate]
[3]
  Ki: > 80 nM and 83 nM
Human MAO B (hMAO B) [2]
  IC50: 1060 ± 37 nM
other
  melting point: 158 to 160 °C

## Cc1cccc(C(C)(C)C)c1OCCCN1CCCCC1.O=C(O)C(=O)O [Compound 26, 1-(3-(2-(tert-Butyl)-6-methylphenoxy)propyl)piperidine hydrogen oxalate]
[1]; read-out: hH3R Ki [nM] ± SEM
  Ki: > 1000 nM
[1]
  inhibition at 1 µM: 0%
Human MAO B (hMAO B) [2]
  inhibition at 1 µM: 0%
other
  melting point: 134 to 135 °C

## Cc1ccc(OCCCN2CCCCC2)c(C(C)(C)C)c1.O=C(O)C(=O)O [Compound 28, 1-(3-(2-(tert-Butyl)-4-methylphenoxy)propyl)piperidine hydrogen oxalate]
[1]; read-out: hH3R Ki [nM] ± SEM
  Ki: 448 ± 59 nM
Human MAO B (hMAO B) [2]
  inhibition at 1 µM: 7%
other
  melting point: 182 to 184 °C

## CCC(C)(C)c1ccc(OCCCN2CCCCC2)cc1 [DL77]
hMAO B
  IC50: 19 nM
hH3R
  Ki: 37 nM

## C[C@H](NCc1ccc(OCc2cccc(F)c2)cc1)C(N)=O [Safinamide, reference compound]
Human MAO B (hMAO B) [4]
  Affinity (free enzyme vs enzyme-substrate complex): Free enzyme > enzyme-substrate complex
  Mode of inhibition from kinetic values and LB plot: Mixed mode
Human MAO B (hMAO B) [4]; Lineweaver–Burk double-reciprocal plot
  Lines on LB plot: Lines intersect to the left of y-axis and above x-axis
Human MAO B (hMAO B) [4]; [6]
  app. KM: ↑ curvilinearly with ↑ [I]
  app. Vmax: ↓ curvilinearly with ↑ [I]
  app. Vmax/app. KM: ↓ curvilinearly with ↑ [I]
MAO B
  effect of 30 min preincubation on inhibition (preincubated vs non-preincubated): did not show differences between the variants
  reversibility of MAO B inhibition: reversible inhibition

## Cn1c(=O)c2c(ncn2C)n(C)c1=O [caffeine, reference compound]
[5]
  Pe (×10^−6cm/s) ± SD: 15.1 ×10^−6cm/s

## O=C(c1ccc(OCCCc2cnc[nH]2)cc1)C1CC1 [ciproxifan]
hMAO B
  IC50: 2000 nM
hH3R
  Ki: 46 nM

## C#CCN[C@@H]1CCc2ccccc21 [rasagiline, reference compound]
MAO B
  effect of 30 min preincubation on inhibition (preincubated vs non-preincubated): inhibited the enzyme more strongly than non-preincubated
  reversibility of MAO B inhibition: Irreversible inhibition
